Patent US20240194290A1, “HIDDEN ANTIBIOTICS IN THE HUMAN PROTEOME” (THE TRUSTEES OF THE UNIVERSITY OF PENNSYLVANIA, priority 2021, published 2024)
Ends that are not written are not given here.

Tests used:
Assay in all cases: Outer membrane permeabilization (NPN uptake) assay
Conditions in all cases: peptides at MIC
P. aeruginosa PAO1 = assay type: cell-based, Pseudomonas aeruginosa
Experimental: (§1) FIG. 10. Membrane permeabilization and depolarization assays for several bacterial strains. […] FIG. 10B: Cytoplasmic membrane depolarization assays performed against P. aeruginosa PAO1 and the gut commensal B. fragilis ATCC25285.
(§2) Methods: Membrane depolarization assays. The cytoplasmic membrane depolarization activity of the peptides was determined by measurements of fluorescence of the membrane potential-sensitive dye, DiSC3(5). Briefly, A. baumannii ATCC19606, P. aeruginosa PAO1 and B. fragilis ATCC25285 were grown at 37° C. with agitation until they reached mid-log phase (OD600=0.5). […] Thereafter, the cells (100 μL) were incubated for 15 min with 20 nmol L^−1 of DiSC3(5) until a stable reduction of fluorescence was achieved, indicating the incorporation of the dye into the bacterial membrane. Membrane depolarization was then monitored by observing the change in the fluorescence emission intensity of the membrane potential-sensitive dye, DiSC3(5) (λex=622 nm, λem=670 nm), after the addition of peptides (100 μL solution at MIC values). […] The membrane permeability of the peptides was determined by using the N-phenyl-1-napthylamine (NPN) uptake assay. […] The background fluorescence was recorded at λex=350 nm and λem=420 nm. […]

S. epidermidis = assay type: cell-based, Staphylococcus epidermidis
Experimental: as §1, §2

B. fragilis ATCC25285 = assay type: cell-based, Bacteroides fragilis
Experimental: as §1, §2

Measured: outer membrane permeabilization (NPN)

SKEMFPRSFIKLLRSKVSRFLRPYK [SCUB1-SKE25]
permeabilized: all assays above
